Data taken from patent US5304540A, “Pharmaceutical bacteriocin compositions and methods for using the same” (Applied Microbiology, Inc., priority 1993, dated 1994).
Like-named read-outs stand apart in the source and are kept apart here.

Tests used:
[1] = system: Helicobacter pylori
[2] = system: Escherichia coli; assay: Germicidal suspension assay, E. coli; format: cell-based; conditions: for % survival at 1 min: 37° C.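 For all read-outs here: surviving cells were scored as colonies on nutrient agar after 24 h at 37° C, survival given as percent of untreated controls.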
Method: E. coli cells from an overnight Trypticase soy nutrient agar (TSA) were resuspended to a density measured as an absorbance of 1.0 at 600 nm in sterile ddH2 O. The reaction of the cells with each of the bactericidal test formulations analyzed was started by addition of 30 μl of cells to 970 μl of test formulation. The reaction mixture was incubated at 37° C for at least 1 minute and then centrifuged in a microfuge for 1 minute. The cell pellet was washed by resuspension in 1 ml of neutralization buffer. (The neutralization buffer: 50 mM Tris-HCl, pH 7.0, 5 mM MgSO4, 20 mM CaCl2, 0.1 M NaCl and 0.1% gelatin was prepared by first making Tris buffer and adjusting the pH. The salts and gelatin were then added and the solution stirred with heat until the solution was clear. The solution was then autoclaved for 20 min. The neutralization buffer was used without dilution.) The cells were centrifuged in a microfuge for 1 minute and resuspended in 1 ml of neutralization buffer. The viable count was determined by spreading 100 μl of bacterial suspension and serial dilutions thereof in neutralization buffer on nutrient agar and scoring surviving colonies after 24 h at 37° C. Percent survival relative to untreated controls was calculated from the scored values.

[3] = 0.1% w/v acetate pH 3.5, nisin 100 μg/ml and/or EDTA 1.0 mM where present, initial 2 × 10^7 cfu/ml
[4] = 0.1% w/v lactate pH 3.5, nisin 100 μg/ml and/or EDTA 1.0 mM where present, initial 5 × 10^7 cfu/ml
[5] = 0.1% w/v succinate pH 3.5, nisin 100 μg/ml and/or EDTA 1.0 mM where present, initial 3.4 × 10^6 cfu/ml
[6] = 0.3% w/v acetate pH 3.5, nisin 100 μg/ml and/or EDTA 1.0 mM where present, initial 2 × 10^7 cfu/ml
[7] = 0.3% w/v lactate pH 3.5, nisin 100 μg/ml and/or EDTA 1.0 mM where present, initial 5 × 10^7 cfu/ml
[8] = 0.3% w/v succinate pH 3.5, nisin 100 μg/ml and/or EDTA 1.0 mM where present, initial 3.4 × 10^6 cfu/ml
[9] = 1.0% w/v acetate pH 3.5, nisin 100 μg/ml and/or EDTA 1.0 mM where present, initial 2 × 10^7 cfu/ml
[10] = 1.0% w/v lactate pH 3.5, nisin 100 μg/ml and/or EDTA 1.0 mM where present, initial 5 × 10^7 cfu/ml
[11] = 1.0% w/v succinate pH 3.5, nisin 100 μg/ml and/or EDTA 1.0 mM where present, initial 3.4 × 10^6 cfu/ml
[12] = 3.0% w/v acetate pH 3.5, nisin 100 μg/ml and/or EDTA 1.0 mM where present, initial 2 × 10^7 cfu/ml
[13] = 3.0% w/v lactate pH 3.5, nisin 100 μg/ml and/or EDTA 1.0 mM where present, initial 5 × 10^7 cfu/ml
[14] = 3.0% w/v succinate pH 3.5, nisin 100 μg/ml and/or EDTA 1.0 mM where present, initial 3.4 × 10^6 cfu/ml

## O=C(O)CC(O)(CC(=O)O)C(=O)O [Citrate]
[1]; strain ATCC43504, 0.1% citrate adjusted to pH 2.5, nisin 100 μg/ml where present, 37° C.
  % survival at 5 min: 0.14%
[1]; strain ATCC43504, 0.1% citrate adjusted to pH 3.0, nisin 100 μg/ml where present, 37° C.
  % survival at 5 min: < 0.004%
[1]; strain ATCC43504, 0.1% citrate adjusted to pH 3.5, nisin 100 μg/ml where present, 37° C.
  % survival at 5 min: < 0.004%
[1]; strain ATCC43504, 0.1% citrate adjusted to pH 4.0, nisin 100 μg/ml where present, 37° C.
  % survival at 5 min: 0.36%
[1]; strain ATCC43504, 0.1% citrate adjusted to pH 5.0, nisin 100 μg/ml where present, 37° C.
  % survival at 5 min: 68.5%
[1]; strain ATCC43504, 0.3% citrate adjusted to pH 2.5, nisin 100 μg/ml where present, 37° C.
  % survival at 5 min: 0.027%
[1]; strain ATCC43504, 0.3% citrate adjusted to pH 3.0, nisin 100 μg/ml where present, 37° C.
  % survival at 5 min: < 0.027%
[1]; strain ATCC43504, 0.3% citrate adjusted to pH 3.5, nisin 100 μg/ml where present, 37° C.
  % survival at 5 min: 29.7%
[1]; strain ATCC43504, 0.3% citrate adjusted to pH 4.0, nisin 100 μg/ml where present, 37° C.
  % survival at 5 min: 17.6%
[1]; strain ATCC43504, 0.3% citrate adjusted to pH 5.0, nisin 100 μg/ml where present, 37° C.
  % survival at 5 min: 100%
[1]; strain ATCC43504, pH 5.0, citrate 0.1% w/v, nisin 100 μg/ml where present, first of two experiments (initial 1.40 × 10^5 cfu/ml)
  % survival at 5 min: 83.6%
[1]; strain ATCC43504, pH 5.0, citrate 0.1% w/v, nisin 100 μg/ml where present, second of two experiments (initial 3.26 × 10^5 cfu/ml)
  % survival at 5 min: 25.8%
[1]; strain ATCC43504, pH 5.0, citrate 0.3% w/v, nisin 100 μg/ml where present, first of two experiments (initial 1.40 × 10^5 cfu/ml)
  % survival at 5 min: 42.9%
[1]; strain ATCC43504, pH 5.0, citrate 0.3% w/v, nisin 100 μg/ml where present, second of two experiments (initial 3.26 × 10^5 cfu/ml)
  % survival at 5 min: 4.39%
[1]; strain ATCC43504, pH 5.0, citrate 1.0% w/v, nisin 100 μg/ml where present, first of two experiments (initial 1.40 × 10^5 cfu/ml)
  % survival at 5 min: 22.1%
[1]; strain ATCC43504, pH 5.0, citrate 1.0% w/v, nisin 100 μg/ml where present, second of two experiments (initial 3.26 × 10^5 cfu/ml)
  % survival at 5 min: 50.9%
[1]; strain ATCC43504, pH 7.0, citrate 0.1% w/v, nisin 100 μg/ml where present, initial 9.62 × 10^4 cfu/ml
  % survival at 5 min: 17.7%
[1]; strain ATCC43504, pH 7.0, citrate 0.3% w/v, nisin 100 μg/ml where present, initial 9.62 × 10^4 cfu/ml
  % survival at 5 min: 8.94%
[1]; strain ATCC43504, pH 7.0, citrate 1.0% w/v, nisin 100 μg/ml where present, initial 9.62 × 10^4 cfu/ml
  % survival at 5 min: 0.82%
[1]; strain ATCC43579, 0.1% citrate adjusted to pH 2.5, nisin 100 μg/ml where present, 37° C.
  % survival at 5 min: < 5.0 × 10^-4%
[1]; strain ATCC43579, 0.1% citrate adjusted to pH 3.0, nisin 100 μg/ml where present, 37° C.
  % survival at 5 min: 1.1 × 10^-3%
[1]; strain ATCC43579, 0.1% citrate adjusted to pH 3.5, nisin 100 μg/ml where present, 37° C.
  % survival at 5 min: 0.18%
[1]; strain ATCC43579, 0.1% citrate adjusted to pH 4.0, nisin 100 μg/ml where present, 37° C.
  % survival at 5 min: 9.56%
[1]; strain ATCC43579, 0.1% citrate adjusted to pH 5.0, nisin 100 μg/ml where present, 37° C.
  % survival at 5 min: 97.2%
[1]; strain ATCC43579, pH 5.0, 0.1% citrate, nisin 0, 37° C., initial 3.19 × 10^7 cfu/ml
  % survival at 5 min: 86.2%
[1]; strain ATCC43579, pH 5.0, citrate 0.1% w/v, nisin 100 μg/ml where present, initial 1.04 × 10^4 cfu/ml
  % survival at 5 min: 100%
[1]; strain ATCC43579, pH 5.0, citrate 0.3% w/v, nisin 100 μg/ml where present, initial 1.04 × 10^4 cfu/ml
  % survival at 5 min: 100%
[1]; strain ATCC43579, pH 5.0, citrate 1.0% w/v, nisin 100 μg/ml where present, initial 1.04 × 10^4 cfu/ml
  % survival at 5 min: 100%
[1]; strain ATCC43579, pH 7.0, citrate 0.1% w/v, nisin 100 μg/ml where present
  % survival at 5 min: 12.1%
[1]; strain ATCC43579, pH 7.0, citrate 0.3% w/v, nisin 100 μg/ml where present
  % survival at 5 min: 0.26%
[1]; strain ATCC43579, pH 7.0, citrate 1.0% w/v, nisin 100 μg/ml where present
  % survival at 5 min: 0.02%
[2]; 0.1% w/v citrate pH 3.5, nisin 100 μg/ml and/or EDTA 1.0 mM where present, initial 5 × 10^7 cfu/ml
  % survival at 1 min: 100%
[2]; 0.3% w/v citrate pH 3.5, nisin 100 μg/ml and/or EDTA 1.0 mM where present, initial 5 × 10^7 cfu/ml
  % survival at 1 min: 56.3%
[2]; 1.0% w/v citrate pH 3.5, nisin 100 μg/ml and/or EDTA 1.0 mM where present, initial 5 × 10^7 cfu/ml
  % survival at 1 min: 72.9%
[2]; 3.0% w/v citrate pH 3.5, nisin 100 μg/ml and/or EDTA 1.0 mM where present, initial 5 × 10^7 cfu/ml
  % survival at 1 min: 100%
[2]
  survival of E. coli on exposure to the agent by itself: unaffected

## O=C(O)CN(CCN(CC(=O)O)CC(=O)O)CC(=O)O [EDTA]
[1]; strain ATCC43504, EDTA 1.0 mM, nisin 100 μg/ml where present, pH 2.5, first of two experiments (initial 8.6 × 10^4 cfu/ml)
  % survival at 5 min: 0.023%
[1]; strain ATCC43504, EDTA 1.0 mM, nisin 100 μg/ml where present, pH 2.5, second of two experiments (initial 9.82 × 10^5 cfu/ml)
  % survival at 5 min: 0.013%
[1]; strain ATCC43504, EDTA 1.0 mM, nisin 100 μg/ml where present, pH 3.0, first of two experiments (initial 8.6 × 10^4 cfu/ml)
  % survival at 5 min: < 0.021%
[1]; strain ATCC43504, EDTA 1.0 mM, nisin 100 μg/ml where present, pH 3.0, second of two experiments (initial 9.82 × 10^5 cfu/ml)
  % survival at 5 min: < 0.001%
[1]; strain ATCC43504, EDTA 1.0 mM, nisin 100 μg/ml where present, pH 3.5, first of two experiments (initial 8.6 × 10^4 cfu/ml)
  % survival at 5 min: 94.2%
[1]; strain ATCC43504, EDTA 1.0 mM, nisin 100 μg/ml where present, pH 3.5, second of two experiments (initial 9.82 × 10^5 cfu/ml)
  % survival at 5 min: 0.015%
[1]; strain ATCC43504, EDTA 1.0 mM, nisin 100 μg/ml where present, pH 4.0, first of two experiments (initial 8.6 × 10^4 cfu/ml)
  % survival at 5 min: 11.6%
[1]; strain ATCC43504, EDTA 1.0 mM, nisin 100 μg/ml where present, pH 4.0, second of two experiments (initial 9.82 × 10^5 cfu/ml)
  % survival at 5 min: 16.5%
[1]; strain ATCC43504, EDTA 1.0 mM, nisin 100 μg/ml where present, pH 5.0, first of two experiments (initial 8.6 × 10^4 cfu/ml)
  % survival at 5 min: 10.0%
[1]; strain ATCC43504, EDTA 1.0 mM, nisin 100 μg/ml where present, pH 5.0, second of two experiments (initial 9.82 × 10^5 cfu/ml)
  % survival at 5 min: 100%
[1]; strain ATCC43526, pH 7.0, EDTA 1.0 mM, nisin 100 μg/ml where present, initial 3.40 × 10^4 cfu/ml
  % survival at 5 min: 94.1%
[1]; strain ATCC43526, pH 7.0, EDTA 10 mM, nisin 100 μg/ml where present, initial 3.40 × 10^4 cfu/ml
  % survival at 5 min: 21.0%
[1]; strain ATCC43526, pH 7.0, EDTA 100 mM, nisin 100 μg/ml where present, initial 3.40 × 10^4 cfu/ml
  % survival at 5 min: 1.62%
[1]; strain ATCC43579, pH 5.0, EDTA 1.0 mM, nisin 100 μg/ml where present, initial 2.04 × 10^5 cfu/ml
  % survival at 5 min: 13.63%
[1]; strain ATCC43579, pH 5.0, EDTA 10 mM, nisin 100 μg/ml where present, initial 2.04 × 10^5 cfu/ml
  % survival at 5 min: 8.82%
[1]; strain ATCC43579, pH 5.0, EDTA 100 mM, nisin 100 μg/ml where present, initial 2.04 × 10^5 cfu/ml
  % survival at 5 min: 0.43%
[2]; [3]
  % survival at 1 min: 40%
[2]; [4]
  % survival at 1 min: 5.1%
[2]; [5]
  % survival at 1 min: 56.8%
[2]; [6]
  % survival at 1 min: 25%
[2]; [7]
  % survival at 1 min: 0.46%
[2]; [8]
  % survival at 1 min: 63.6%
[2]; [9]
  % survival at 1 min: 25%
[2]; [10]
  % survival at 1 min: 0.91%
[2]; [11]
  % survival at 1 min: 46.2%
[2]; [12]
  % survival at 1 min: 10.7%
[2]; [13]
  % survival at 1 min: 1.58%
[2]; [14]
  % survival at 1 min: 43.2%
[2]
  survival of E. coli on exposure to the agent by itself: unaffected
[2]; pH 2.0, 20 mM Na acetate buffer, nisin 100 μg/ml and/or EDTA 1.0 mM, initial 4 × 10^7 cfu/ml
  % survival at 1 min: 0.07%
[2]; pH 3.0, 20 mM Na acetate buffer, nisin 100 μg/ml and/or EDTA 1.0 mM, initial 4 × 10^7 cfu/ml
  % survival at 1 min: 5.41%

## CC(=O)O [Acetate]
[2]; [3]
  % survival at 1 min: 55%
[2]; [6]
  % survival at 1 min: 80%
[2]; [9]
  % survival at 1 min: 90%
[2]; [12]
  % survival at 1 min: 10.1%

## O=C(O)CCC(=O)O [Succinate, succinate]
[2]; [5]
  % survival at 1 min: 85.5%
[2]; [8]
  % survival at 1 min: 29.9%
[2]; [11]
  % survival at 1 min: 36.7%
[2]; [14]
  % survival at 1 min: 13.9%

## CC(O)C(=O)O (stereo not shown) [Lactate, lactate]
[2]; [4]
  % survival at 1 min: 22.2%
[2]; [7]
  % survival at 1 min: 46.7%
[2]; [10]
  % survival at 1 min: 35.6%
[2]; [13]
  % survival at 1 min: 4.2%
